Experimental data: patent US20050112573A1, “Method of detecting toxic substance” (priority 2001, published 2005)

Test system: yeast genes (level of expressed mRNA)
Assay: DNA chip analysis of expressed mRNA of yeast genes after 2 h culture with a toxic chemical substance
Format: cell-based, Saccharomyces cerevisiae S288C
Method: Yeast (Saccharomyces cerevtisiae S288C (α SUC2mal mel gap2 CUP1)) were cultured at 25° C. on YPD medium (yeast extract 1%, polypepton 2%, glucose 2%). One of toxic chemical substances was added to the cell at logarithmic growth phase, and the cell was further cultured for two hours. Cell was cultured without any chemical substance in the same condition, and was used as control. Concentrations of the chemical substances were defined to inhibit the growth of the yeast but not lead to death.
After the completion of cultivation, the culture was centrifuged to collect the cells. To the cells, sodium acetate buffer (50 mM sodium acetate, 10 mM EDTA, 1% SDS) was added, and the mixture was shaken at 65° C. for five minutes, followed by returning to room temperature, and obtaining the supernatant, which procedure was repeated two times. To the supernatant, ½ amount of a solution of phenol/chloroform was added, and the mixture was centrifuged to give a supernatant, which was added with an equal amount of chloroform, and the mixture was centrifuged to give a supernatant. To the supernatant, an equal amount of isopropanol containing 0.3 M sodium acetate was added, and the mixture was allowed to stand at room temperature for 30 minutes, after which the mixture was centrifuged to give a sediment of the whole RNAs. Seventy % ethanol was added to the sediment, and the mixture was again centrifuged to give a sediment, which was then dried and dissolved in water. mRNA was isolated from the whole RNAs as followings. In view of the fact that a poly A chain is attached to the 3′ terminus of mRNA, a polynucleotide having a poly T structure which was immobilized on the surface of latex beads was used to trap the mRNA, and then the mRNA was washed and eluted with spine column (Oligotex-dT30<Super>mRNA Purification Kit, Takara). Reverse transcription of the mRNA was conducted with a reverse transcriptase (Super Script II Reverse Transcriptase; catalogue No. 18064-014, GibcoBRL) using fluorescence-labeled nucleotides to give cDNAs that were introduced with Cy3-dUTP or Cy5-dUTP during the reverse transcription.
The labeled cDNAs were dissolved in TE buffer (10 mM Tris-HCl/1 mM EDTA, pH8.0), and the solution was dropped on the DNA chip containing the whole genes of yeast (DNA Chip Research Inc. Japan) so that the cDNAs were hybridized on the DNA chip at 65° C. for over 12 hours. The fluoresces intensity of the DNA chip was read with a scanner, and the ratio relative to the fluorescence intensity resulting from the absence of chemical substance was estimated as the following, which is shown in Tables 1 to 9: [formula]
In the Tables, “Intensity” indicated in the rightmost column is a value of the level of expressed mRNA of each gene in control cells as divided by the average level of the expressions of the whole genes.

Structure (SMILES): Oc1cc(Cl)c(Cl)cc1Cl [(6), 2,4,5-trichlorophenol]
- The level of expressed mRNA in the presence of chemical substance/The level of expressed mRNA in the absence of chemical substance (yeast gene YAR010C): 2.3
- The level of expressed mRNA in the presence of chemical substance/The level of expressed mRNA in the absence of chemical substance (yeast gene YBL005W-A): 1.2
- The level of expressed mRNA in the presence of chemical substance/The level of expressed mRNA in the absence of chemical substance (yeast gene YBL041W): 1.7
- The level of expressed mRNA in the presence of chemical substance/The level of expressed mRNA in the absence of chemical substance (yeast gene YBL043W): 26.9
- The level of expressed mRNA in the presence of chemical substance/The level of expressed mRNA in the absence of chemical substance (yeast gene YBL078C): 2.4
- The level of expressed mRNA in the presence of chemical substance/The level of expressed mRNA in the absence of chemical substance (yeast gene YBR214W): 0.8
- The level of expressed mRNA in the presence of chemical substance/The level of expressed mRNA in the absence of chemical substance (yeast gene YCL020W): 1.0
- The level of expressed mRNA in the presence of chemical substance/The level of expressed mRNA in the absence of chemical substance (yeast gene YCL027W): 1.3
- The level of expressed mRNA in the presence of chemical substance/The level of expressed mRNA in the absence of chemical substance (yeast gene YCR004C): 1.8
- The level of expressed mRNA in the presence of chemical substance/The level of expressed mRNA in the absence of chemical substance (yeast gene YCR071C): 2.5
- The level of expressed mRNA in the presence of chemical substance/The level of expressed mRNA in the absence of chemical substance (yeast gene YCR088W): 2.0
- The level of expressed mRNA in the presence of chemical substance/The level of expressed mRNA in the absence of chemical substance (yeast gene YDL008W): 2.7
- The level of expressed mRNA in the presence of chemical substance/The level of expressed mRNA in the absence of chemical substance (yeast gene YDL238C): 2.1
- The level of expressed mRNA in the presence of chemical substance/The level of expressed mRNA in the absence of chemical substance (yeast gene YDR055W): 3.9
- The level of expressed mRNA in the presence of chemical substance/The level of expressed mRNA in the absence of chemical substance (yeast gene YDR084C): 2.1
- The level of expressed mRNA in the presence of chemical substance/The level of expressed mRNA in the absence of chemical substance (yeast gene YDR085C): 2.1
- The level of expressed mRNA in the presence of chemical substance/The level of expressed mRNA in the absence of chemical substance (yeast gene YDR104C): 1.7
- The level of expressed mRNA in the presence of chemical substance/The level of expressed mRNA in the absence of chemical substance (yeast gene YDR115W): 2.3
- The level of expressed mRNA in the presence of chemical substance/The level of expressed mRNA in the absence of chemical substance (yeast gene YDR259C): 0.5
- The level of expressed mRNA in the presence of chemical substance/The level of expressed mRNA in the absence of chemical substance (yeast gene YDR315C): 9.4
- The level of expressed mRNA in the presence of chemical substance/The level of expressed mRNA in the absence of chemical substance (yeast gene YDR358W): 2.5
- The level of expressed mRNA in the presence of chemical substance/The level of expressed mRNA in the absence of chemical substance (yeast gene YDR388W): 1.0
- The level of expressed mRNA in the presence of chemical substance/The level of expressed mRNA in the absence of chemical substance (yeast gene YDR432W): 0.6
- The level of expressed mRNA in the presence of chemical substance/The level of expressed mRNA in the absence of chemical substance (yeast gene YDR481C): 0.9
- The level of expressed mRNA in the presence of chemical substance/The level of expressed mRNA in the absence of chemical substance (yeast gene YDR510W): 1.0
- The level of expressed mRNA in the presence of chemical substance/The level of expressed mRNA in the absence of chemical substance (yeast gene YEL042W): 0.5
- The level of expressed mRNA in the presence of chemical substance/The level of expressed mRNA in the absence of chemical substance (yeast gene YEL066W): 2.2
- The level of expressed mRNA in the presence of chemical substance/The level of expressed mRNA in the absence of chemical substance (yeast gene YER039C): 1.6
- The level of expressed mRNA in the presence of chemical substance/The level of expressed mRNA in the absence of chemical substance (yeast gene YER107C): 2.5
- The level of expressed mRNA in the presence of chemical substance/The level of expressed mRNA in the absence of chemical substance (yeast gene YER130C): 2.7
- The level of expressed mRNA in the presence of chemical substance/The level of expressed mRNA in the absence of chemical substance (yeast gene YFL028C): 1.7
- The level of expressed mRNA in the presence of chemical substance/The level of expressed mRNA in the absence of chemical substance (yeast gene YFL043C): 1.8
- The level of expressed mRNA in the presence of chemical substance/The level of expressed mRNA in the absence of chemical substance (yeast gene YGL158W): 0.4
- The level of expressed mRNA in the presence of chemical substance/The level of expressed mRNA in the absence of chemical substance (yeast gene YGL229C): 2.2
- The level of expressed mRNA in the presence of chemical substance/The level of expressed mRNA in the absence of chemical substance (yeast gene YGR136W): 1.1
- The level of expressed mRNA in the presence of chemical substance/The level of expressed mRNA in the absence of chemical substance (yeast gene YGR189C): 0.5
- The level of expressed mRNA in the presence of chemical substance/The level of expressed mRNA in the absence of chemical substance (yeast gene YGR213C): 4.1
- The level of expressed mRNA in the presence of chemical substance/The level of expressed mRNA in the absence of chemical substance (yeast gene YGR257C): 2.1
- The level of expressed mRNA in the presence of chemical substance/The level of expressed mRNA in the absence of chemical substance (yeast gene YHR004C): 2.0
- The level of expressed mRNA in the presence of chemical substance/The level of expressed mRNA in the absence of chemical substance (yeast gene YHR071W): 2.0
- The level of expressed mRNA in the presence of chemical substance/The level of expressed mRNA in the absence of chemical substance (yeast gene YHR139C): 1.9
- The level of expressed mRNA in the presence of chemical substance/The level of expressed mRNA in the absence of chemical substance (yeast gene YHR142W): 1.2
- The level of expressed mRNA in the presence of chemical substance/The level of expressed mRNA in the absence of chemical substance (yeast gene YIL123W): 0.5
- The level of expressed mRNA in the presence of chemical substance/The level of expressed mRNA in the absence of chemical substance (yeast gene YIL140W): 0.5
- The level of expressed mRNA in the presence of chemical substance/The level of expressed mRNA in the absence of chemical substance (yeast gene YJL073W): 2.0
- The level of expressed mRNA in the presence of chemical substance/The level of expressed mRNA in the absence of chemical substance (yeast gene YJL089W): 1.6
- The level of expressed mRNA in the presence of chemical substance/The level of expressed mRNA in the absence of chemical substance (yeast gene YJL116C): 3.4
- The level of expressed mRNA in the presence of chemical substance/The level of expressed mRNA in the absence of chemical substance (yeast gene YJR004C): 1.2
- The level of expressed mRNA in the presence of chemical substance/The level of expressed mRNA in the absence of chemical substance (yeast gene YJR086W): 1.9
- The level of expressed mRNA in the presence of chemical substance/The level of expressed mRNA in the absence of chemical substance (yeast gene YKL008C): 3.8
